The values below come from PMC10681007, “Targeted Degradation of XIAP is Sufficient and Specific to Induce Apoptosis in MYCN-overexpressing High-risk Neuroblastoma” (Cancer Research Communications, 2023).

Common to all, as to format: cell-based, Human
In one assay the test system is BE(2)-C. The assay can be described thus: Drug interactions assay (Chou-Talalay CI, DRI). The conditions noted are these: vincristine dose axis, 48 hours. Here is the method:
(§1) Drug interactions between XIAP-specific antagonist A4 and vincristine or topotecan were determined using the combination index (CI) by Chou and Talalay which was established on the basis of the mass-action law principle to derive the median-effect equation ([25]). […] Cell viability was measured and CI and dose reduction index (DRI) values were quantified using the CompuSyn software by Chou–Talalay. Areas under the dose–response curves were calculated using the trapezoidal method and compared using paired t test.
(§2) For treatment of high-risk neuroblastoma, current standard-of-care utilizes intensive multimodal therapy involving combinations of multiple cytotoxic agents. […] To analyze potential drug interactions, treatment of BE(2)-C and KELLY cells with A4 in combination with either vincristine or topotecan was examined. Using Chou–Talalay method, the drug interaction effect/type determined by the drug combination (CI) index is as follows: CI <1 (synergistic effect); CI = 1 (additive effect); CI >1 (antagonistic effect).
(§3) CI was generated using CompuSyn software by Chou–Talalay ([25]). CI60–90 represents the average CI at 60%–90% cell death. CI <1 denotes synergistic effect; CI = 1 denotes addictive effect and CI >1 denotes antagonistic effect. […] DRI was generated using CompuSyn software by Chou–Talalay. DRI60–90 represents the average DRI at 60%–90% cell death. DRI <1 denotes unfavorable dose reduction and DRI >1 denotes favorable dose reduction.

A further assay deals with KELLY. The assay can be described thus: Drug interactions assay (Chou-Talalay CI, DRI). The conditions noted are these: vincristine dose axis, 48 hours. Here is the method:
as §1, §2, §3

The subject of a further assay is SK-N-AS. In words: Drug interactions assay (Chou-Talalay). Conditions: in combination with A4. Here is the method:
as §1
DRI <1 denotes unfavorable dose reduction and DRI >1 denotes favorable dose reduction.

Structures are written as SMILES. Where a name gives a salt, the structure may show the parent alone.

Turning to `CC[C@]1(O)C[C@H]2CN(CCc3c([nH]c4ccccc34)[C@@](C(=O)OC)(c3cc4c(cc3OC)N(C=O)[C@H]3[C@@](O)(C(=O)OC)[C@H](OC(C)=O)[C@]5(CC)C=CCN6CC[C@]43[C@@H]65)C2)C1` [Vincristine, Vincristine sulfate], the “AUC of dose–response curve” value is recorded as 9.8±0.2 pM* luminescence in the assay on BE(2)-C and 37.5±3.9 pM* luminescence in the assay on KELLY. Further, the “drug interaction with A4” value in the assay on SK-N-AS is reported as “only additive effect”.
